Measurements taken from patent US11098083B2, “Peptide that regulates fat metabolism and method for regulating fat metabolism” (SHENZHEN INSTITUTES OF ADVANCED TECHNOLOGY, priority 2017, dated 2021).
Ends that are not written are not given here.

Legend:
wild-type C57BL/6 mice = experiment: gavage of ISAP4, ISAP5, ISAP6: intestinal absorption of fat (olive oil) in normal mice; assay type: in vivo; settings: gavage 2 pmol/g daily one week, day 8 olive oil 200 μl, compared with saline control group, FIG. 9
Description: S410: effects of acute gavage of ISAP4, ISAP5, and ISAP6 on intestinal absorption of fat in normal mice may be studied.
15 male wild-type C57BL/6 mice of 6 weeks old may be divided into 5 groups, 3 in each group. There may be 3 experimental groups, and the mice in the 3 experimental groups may be administered with ISAP4, ISAP5, and ISAP6 at 2 pmol/g of body weight respectively. The mice in two control groups may be gavaged with an equal volume of normal saline daily for one week. On the 8th day of the experiment, 30 minutes after gavage of ISAP4, ISAP5, ISAP6 and normal saline respectively, the mice in the three experimental groups may be gavaged with 200 μl of sterilized olive oil, the mice in one of the control groups may also be intragstrically administered with 200 μl of sterilized olive oil to be a saline control group, and the mice in the other one of the control groups may further be gavaged with 200 μl of normal saline to be a negative control group. After 50 minutes, each mouse may be euthanized using 95% CO2 and dissected to obtain small intestines. The jejunum near the duodenum may be frozen and sliced, stained with oil red O, and counterstained with hematoxylin. An oil red O-positive area may be quantified by the ImageJ software under double-blind conditions and a ratio of the oil red O-positive area to a total area of the intestinal villi may be calculated. Statistical analysis may be performed to compare with the mince in the saline+olive oil group. ***: p<0.001. N=3.
The oil red O-positive area may be quantified by the ImageJ software under double-blind conditions and the ratio of the oil red O-positive area to the total area of the intestinal villi may be calculated. […] Meanwhile, referring to the sequence comparison shown in FIG. 8, it can be seen that SEQ ID NO. 12: PVPYPDPLEP, SEQ ID NO. 15: SVPSPDPLEP, SEQ ID NO. 13: PYPDPLEP and SEQ ID NO. 16: PSPDPLEP are highly similar in sequence, and these sequences may be very conservative in various species. […]

GPRC6A = target: T1, GPRC6A (Homo sapiens, UniProt Q5T6X5); experiment: internalization of GPRC6A with Cy5-labelled peptides in hGPRC6A-overexpressed Hela cells; assay type: cell-based; settings: 100 nM, 37° C., 30 minutes, confocal microscope, FIG. 6C
T1 construct: expressed in transfected cells; host or cells: Hela cells (transfected with Lipofectamine 2000)
T1 sequence (Q5T6X5 19-926): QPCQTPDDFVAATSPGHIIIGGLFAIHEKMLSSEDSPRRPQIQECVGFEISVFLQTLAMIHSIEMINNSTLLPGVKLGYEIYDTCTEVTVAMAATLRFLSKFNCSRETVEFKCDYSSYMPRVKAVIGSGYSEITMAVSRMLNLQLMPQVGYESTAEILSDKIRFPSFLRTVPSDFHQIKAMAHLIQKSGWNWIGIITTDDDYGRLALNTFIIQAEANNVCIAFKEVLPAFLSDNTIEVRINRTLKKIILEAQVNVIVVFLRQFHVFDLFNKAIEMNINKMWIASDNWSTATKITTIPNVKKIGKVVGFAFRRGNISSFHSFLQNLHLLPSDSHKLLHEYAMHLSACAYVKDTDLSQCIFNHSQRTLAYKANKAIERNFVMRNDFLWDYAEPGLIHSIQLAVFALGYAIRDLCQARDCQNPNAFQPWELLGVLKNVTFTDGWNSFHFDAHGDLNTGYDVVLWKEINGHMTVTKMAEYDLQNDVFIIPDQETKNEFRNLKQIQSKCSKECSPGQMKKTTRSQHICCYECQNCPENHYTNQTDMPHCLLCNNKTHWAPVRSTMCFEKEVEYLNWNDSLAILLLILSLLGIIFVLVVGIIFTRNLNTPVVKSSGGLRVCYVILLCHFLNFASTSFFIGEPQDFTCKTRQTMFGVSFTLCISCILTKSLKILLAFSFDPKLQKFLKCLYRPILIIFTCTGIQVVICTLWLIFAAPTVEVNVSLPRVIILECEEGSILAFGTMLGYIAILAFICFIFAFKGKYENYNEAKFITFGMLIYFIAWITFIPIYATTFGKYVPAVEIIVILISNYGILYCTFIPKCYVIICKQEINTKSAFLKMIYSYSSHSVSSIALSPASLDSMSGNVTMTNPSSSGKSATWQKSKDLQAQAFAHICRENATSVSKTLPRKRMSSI
Experimental: S230: Cy5-labelled OCN, Cy5-labelled hOCN22, and Cy5-labelled ISAP^2 may promote internalization of GPRC6A in the GPRC6A-overexpressed Hela cells.
The hGPRC6A-expressed Hela cell suspension may be plated at a density of 1.6×10^5/ml into a 24-well tray, and each well of the tray may be pre-placed with a gelatin-coated coverslip. 0.5 mL of media containing the cells may be added into each well, and the cells may be incubating at 37° C. and 5% CO2 for 24 hours. The cells may be starved for 4 h in serum-free media before any treatment, and then 100 nM of Cy5-OCN, 100 nM of Cy5-hOCN22, and 100 nM of Cy5-ISAP2 may be added to each well respectively to incubate with the cells at 37° C. for 30 minutes. The cells may be fixed by polyoxymethylene for 30 minutes. Afterwards, Triton X may be added to incubate with the cells for 10 minutes. The cells may be stained with 4′,6-diamidino-2-phenylindole (DAPI, Sigma) for 10 seconds as per manufacturer's instructions, and observed and photographed by a fluorescence confocal microscope.

HFD mice [1] = experiment: gavage of peptides in HFD mice: triglyceride in feces, week 7; assay type: in vivo, C57BL/6 mice; settings: gavage 2 pmol/g, feces of week 7, compared with HFD control group, FIG. 7B
Experimental: Feces of each mouse may be collected in week 7, baked at 60° C. for 3 days to ensure complete dryness. Then, 1 mg of the feces may be collected and soaked in 1 ml of a mixed solution consisting of chloroform and methanol in a ratio of 2:1. The soaked feces may then be disrupted with a tissue homogenizer and centrifuged to obtain a supernatant. The supernatant may be detected for triglyceride by the Roche blood biochemical analyzer. Experimental results are shown in FIG. 7B. **: P<0.01, ***: P<0.001.
Feces of the mice may be collected in the 7th week of the experiment and baked at 60° C. for 3 days to ensure complete dryness. Then, 1 mg of the feces may be weighed and soaked in 1 ml of a mixed solution containing chloroform and methanol in a ratio of 2:1. The feces with the mixed solution may be disrupted by a tissue homogenizer and centrifuged to obtain a supernatant. The supernatant may be detected for triglyceride by the Roche blood biochemical analyzer.
Feces of the mice may be collected in the 7th week of the experiment and baked at 60° C. for 3 days to ensure complete dryness. Then, 1 mg of the feces may be weighed and soaked in 1 ml of a mixed solution containing chloroform and methanol in a ratio of 2:1.The feces with the mixed solution may be disrupted by a tissue homogenizer and centrifuged to obtain a supernatant. The supernatant may be detected for triglyceride by the Roche blood biochemical analyzer.
Feces of each mouse may be collected in the 7th week of the experiment, and baked at 60° C. for 3 days to ensure complete dryness. 1 mg of the feces may be weighed and soaked in 1 ml of a mixed solution containing chloroform and methanol in a ratio of 2:1. The feces in the mixed solution may be disrupted by a tissue homogenizer and centrifuged to obtain a supernatant. The supernatant may be detected for triglyceride by the Roche blood biochemical analyzer.

HFD mice [2] = experiment: gavage of peptides in HFD mice for 7 weeks: body weight; assay type: in vivo, C57BL/6 mice; settings: gavage 2 pmol/g of body weight for 7 weeks, compared with HFD control group, FIG. 7A
Description: Six-week-old male wild-type C57BL/6 mice may be divided into 6 groups, 6 mice in each group. Group #1 may be provided with ND, and groups #2 to #6 may be provided with HFD. Group #2 may be treated as a HFD control group. Groups #3 to #6 may be experimental groups, and mice ingroups #3 to #6 may be gavaged with OCN, ISAP1, ISAP2, and ISAP3 respectively at 2 pmol/g of body weight for 7 weeks. Body weight of each mouse may be monitored and measured once a week.
Six-week-old male wild-type C57BL/6 mice may be divided into 6 groups, 6 in each group. Group #1 may be provided with ND to be a ND control group, and groups #2 to #6 may be provided with HFD. Group #2 may be treated as a HFD control group. Groups #3 to #6 may be treated as experimental groups and may be gavaged with OCN, ISAP1, ISAP2, and ISAP3 respectively at 2 pmol/g of body weight daily for 7 weeks. Body weight may be monitored and measured once a week.
Six-week-old male wild-type C57BL/6 mice may be divided into 6 groups, 6 in each group. Group #1 may be provided with ND to be a ND control group, groups #2 to #6 may be provided with HFD. Group #2 may be treated as a HFD control group. Groups #3 to #6 may be treated as experimental groups, and may be gavaged with OCN, ISAP1, ISAP2, and ISAP3 respectively at 2 pmol/g of body weight daily for 7 weeks. A body weight of each mouse may be monitored and measured once a week.

human GPRC6A (hGPRC6A) = target: T2, human GPRC6A (hGPRC6A) (Homo sapiens, UniProt Q5T6X5); experiment: fluorescent binding of OCN peptides to cell membranes of Hela cells with hGPRC6A overexpressed; settings: cell membranes of Hela cells with hGPRC6A overexpressed, FIG. 6B
T2 construct: expressed in transfected cells; host or cells: Hela cells (transfected with Lipofectamine 2000)
T2 sequence (Q5T6X5 19-926): T1 sequence (Q5T6X5 19-926)
Experimental: S131: overexpression of hGPRC6A in Hela cells may be established.
1) Cell plating: A Hela cell suspension may be plated at a density of 1.6×10^5 cells/mL into a 6-well tray with 2 mL of DMEM per well, incubating at 37° C. and 5% CO2 for 24 hours.
2) A vector carrying hGPRC6A (pReceiver-M61) may be transfected into the Hela cells for overexpression, using Lipofectamine 2000 (Invitrogen) as per manufacturer's instructions, and media containing the vector may be replaced by normal media 4 hours later.
3) After the transfection, the cells may be cultured in the normal media for another 48 hours, and the normal media may be discarded. The cells attached on a bottom of each well may be washed twice with sterile PBS, and 300 μl of TRIzol solution may be added into each well. Cellular RNAs may be extracted as per RNAiso Plus (TaKaRa) instructions, and after a DNase treatment, may be reversely transcribed into cDNAs using DNAEngine and a SuperScript™ (Invitrogen, Canada) kit. The cDNAs may be used as a template, and real-time monitoring and analysis may be performed to fluorescent PCR products at various time points using a SYBR Green (Light Cycler Roche, Germany) method to detect expression levels of the hGPRC6A. […] The selected cell strain may then be detected for its gene expression by qPCR. […]

## SVPSPDPLEP [ISAP4]
wild-type C57BL/6 mice
  absorption of olive oil in the mice (oil red O-positive area / total area of intestinal villi): effectively reduce the absorption of olive oil

## PDPLEP [ISAP6]
wild-type C57BL/6 mice
  absorption of olive oil in the mice (oil red O-positive area / total area of intestinal villi): effectively reduce the absorption of olive oil

## Cy5-OCN: Cy-5-labeled OCN (osteocalcin protein) (YLYQWLGAPVPYPDPLEPRREVCELNPDCDELADHIGFQEAYRRFYGPV; ends and bridges not checked; also: Cy5 label, position not given here; UniProt P02818 52-100, looked up) [reference compound]
GPRC6A
  distribution of Cy5-labelled peptide (internalization): distributed inside the cell

## Cy5-ISAP2: Cy-5-labeled SEQ ID NO.2 (ISAP2) (YLYQWLGAPVPYPDPLEP; also: Cy5 label, position not given here; listed as Homo sapiens)
GPRC6A
  distribution of Cy5-labelled peptide (internalization): distributed inside the cell

## YLYQWLGASVPSPDPLEP [ISAP2]
HFD mice [1]
  content (level) of triglyceride in the feces: significantly increased
HFD mice [2]
  body weight: significant weight loss
Human GPRC6A (hGPRC6A)
  ability of binding with cell membranes, compared with hOCN: consistent with that of hOCN

## YLYQWLGASVPSPDPLEPR [ISAP3]
HFD mice [1]
  content (level) of triglyceride in the feces: significantly increased
HFD mice [2]
  body weight: significant weight loss

## PSPDPLEP [ISAP5]
wild-type C57BL/6 mice
  absorption of olive oil in the mice (oil red O-positive area / total area of intestinal villi): effectively reduce the absorption of olive oil
